In patent publication US20220202845A1, “METHODS AND COMPOSITIONS FOR TREATING CANCER” (Fred Hutchinson Cancer Research Center, priority 2018, published 2022):

Key:
[1] = system: DUX4 mRNA; assay: DUX4 mRNA levels by RT-qPCR in differentiating MB200 FSHD2 patient-derived muscle cells; assay type: cell-based, human; conditions: varying concentrations, 24 hours, vs DMSO vehicle set to one
Protocol: (§1) FIG. 13A-C. CDK7 inhibitor THZ1 reduces DUX4 expression in FSHD cells and cancer cells. (A) Differentiating MB200 FSHD2 patient-derived muscle cells, (B) SuSa testicular teratocarcinoma cells, or (C) KLE endometrial adenocarcinoma cells were treated with vehicle (−, DMSO) or varying concentrations of THZ1, as indicated, for 24 hours (A) or 20 hours (B-C) and cultures analyzed for DUX4 mRNA levels by RT-qPCR. […] Data are represented as relative expression (means, with error bars indicating standard deviation across three biological replicates) with expression in the absence of inhibitor set to one. FSHD muscle cells utilize DUX4 exon 3, while SuSa cells and KLE cells use DUX4 exon 3b.
(§2) Total RNA was extracted from whole cells using the NucleoSpin RNA kit (Machery-Nagel) according to the manufacturer's instructions. Isolated RNA was treated with DNase I (Thermo Fisher Scientific), heat inactivated, and reverse transcribed into cDNA using SuperScript III (Thermo Fisher Scientific) and oligo(dT) primers (Invitrogen) following the manufacturer's protocol. Quantitative PCR was carried out on a QuantStudio 7 Flex (Applied Biosystems) using primers specific for each mRNA and iTaq SYBR Green Supermix (Bio-Rad Laboratories, Inc.). […]
(§3) Next, the cells were analyzed for DUX4 mRNA levels by RT-qPCR.

[2] = system: DUX4 mRNA; assay: DUX4 mRNA levels by RT-qPCR in KLE endometrial adenocarcinoma cells; assay type: cell-based, human; conditions: varying concentrations, 20 hours, vs DMSO vehicle set to one
Protocol: as §1, §2, §3

[3] = system: DUX4 mRNA; assay: DUX4 mRNA levels by RT-qPCR in SuSa testicular teratocarcinoma cells; assay type: cell-based, human; conditions: varying concentrations, 20 hours, vs DMSO vehicle set to one
Protocol: as §1, §2, §3

[4] = target: p38α (Homo sapiens, UniProt Q16539); conditions: fold selective over p38β; cited from earlier work
p38α, sequence (Q16539 whole entry): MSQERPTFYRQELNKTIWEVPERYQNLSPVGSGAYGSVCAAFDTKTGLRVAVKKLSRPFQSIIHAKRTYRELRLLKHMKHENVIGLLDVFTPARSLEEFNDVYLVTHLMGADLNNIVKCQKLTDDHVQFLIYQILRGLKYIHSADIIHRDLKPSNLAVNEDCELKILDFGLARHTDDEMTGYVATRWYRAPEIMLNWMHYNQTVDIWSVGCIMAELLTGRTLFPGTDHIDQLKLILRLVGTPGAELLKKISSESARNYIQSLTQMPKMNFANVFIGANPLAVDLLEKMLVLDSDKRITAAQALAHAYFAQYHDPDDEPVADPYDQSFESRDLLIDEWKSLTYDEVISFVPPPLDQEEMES

CN(C)C/C=C/C(=O)Nc1ccc(C(=O)Nc2cccc(Nc3ncc(Cl)c(-c4c[nH]c5ccccc45)n3)c2)cc1 [THZ1]
DUX4 mRNA levels (relative expression) [1]: inhibits DUX4 expression | DUX4 mRNA levels (relative expression) [2]: inhibits DUX4 expression | DUX4 mRNA levels (relative expression) [3]: inhibits DUX4 expression

NC(=O)c1ccc(N(C(N)=O)c2c(F)cccc2F)nc1-c1ccc(F)cc1F [VX-702]
Selectivity for p38α over p38β [4]: p38α14X selective over p38β

O=c1ncn2nc(Sc3ccc(F)cc3F)ccc2c1-c1c(Cl)cccc1Cl [VX-745]
Selectivity for p38α over p38β [4]: p38α22X selective over p38β
